According to US9364496B2 (ONCOGENEX TECHNOLOGIES INC., priority 2013, dated 2016):
“And” between values parts separate entries of the source, which are not always exact repeats. Identical values can stand only once. Marks after values point to notes of the source that are not given here. Oligonucleotides are written 5' to 3', each unit as a sugar letter and its base; * is a phosphorothioate linkage, no mark a phosphodiester; rarer units and linkages stand in square brackets, end groups in braces. Plain capitals give the bases only. e = 2'-O-(2-methoxyethyl) (MOE); [5mC] = 5-methylcytosine; d = 2'-deoxy (DNA)

Experiments:
renal cancer = type: in vivo, human; conditions: each group; loading doses then custirsen with a chemotherapeutic agent
Text: At least 50 renal cancer patients are separated into two groups.

[1] = system: RPMI 8226 (human myeloma) xenograft; assay: In vivo activity of custirsen (TV-1011), different doses and regimens with Bortezomib, RPMI 8226 xenograft (Example 15); conditions: for volume / weight / % of baseline (weight) / Δ % (weight) / Δ weight: group 8: TV-1011 30 mg/kg qd*5, 40 mg/kg biwk
Description: 120 CB.17 SCID female mice, 4-6 weeks old, 16-20 grams, obtained from Harlan animal breeding center.
Cells (originated from ATCC) were cultured on RPMI medium. Cell suspension was centrifuged and resuspended in 50% Matrigel/HBSS to a final concentration of 7×10^7 cells/ml. The suspension was implanted s.c. in the right flank of the anesthetized mouse at a volume of 100 μl.
Seven ml saline were added to the original vial containing 3.5 mg powder resulting in 0.5 mg/ml. Three ml of this solution were added to 27 ml saline to receive 0.05 mg/ml concentration. […] 28.5 ml of 4 mg/ml were added to 9.5 saline to receive 3 mg/ml.
Mice were implanted subcutaneously, with 7×10^6 RPMI 8226 cells/mouse (in 50% Martigel/HBSS) on Day 0. On day 21, mice were sorted by the optimal average tumor volume (˜130 mm3) and were allocated into eight groups of 10 mice each.
The treatment started on day 21 post implant, 0.2 ml per 20 grams v/w.
[formula] The analysis of weight gain and tumor volume progression was made using one-way ANOVA followed by Tukey post-hoc comparisons.

ovarian cancer = type: in vivo, human; conditions: each group; loading doses then custirsen with a chemotherapeutic agent
Text: At least 50 ovarian cancer patients are separated into two groups.

NSCLC = type: in vivo, human; conditions: each group; loading doses then custirsen with a chemotherapeutic agent
Text: At least 50 NSCLC patients are separated into two groups.

myeloma = type: in vivo, human; conditions: each group; loading doses then custirsen with a chemotherapeutic agent
Text: At least 50 myeloma patients are separated into two groups.

[2] = TV-1011 alone 30 mg/kg ip qd*5, then 40 mg/kg biwk, day 62
[3] = Day 21 (baseline), group Mean, n 10
[4] = Day 21 (baseline), individual animals
[5] = Day 28 vs Day 21, group Mean, n 10
[6] = Day 28 vs Day 21, individual animals
[7] = Day 33 vs Day 21, group Mean, n 10
[8] = Day 33 vs Day 21, individual animals
[9] = Day 41 vs Day 21, group Mean, n 10
[10] = Day 41 vs Day 21, individual animals
[11] = group mean, n=10, day block 1 of 3
[12] = group mean, n=10, day block 2 of 3
[13] = group mean, n=10, day block 3 of 3
[14] = individual animals, day block 1 of 3
[15] = individual animals, day block 2 of 3
[16] = individual animals, day block 3 of 3

Custirsen: anti-clusterin antisense oligonucleotide CAGCAGCAGAGTCTTCATCAT, phosphorothioate backbone, 2′-O-methoxyethyl at nucleotides 1-4 and 18-21, 5-methylcytosines at 1, 4, 19 (antisense e[5mC]*eA*eG*e[5mC]*dA*dG*dC*dA*dG*dA*dG*dT*dC*dT*dT*dC*dA*eT*e[5mC]*eA*eT; listed as Homo sapiens)
cancer condition of patients (renal cancer): improves | efficacy, in words ([1]; Custirsen 30 mg/kg qdx5 then 40 mg/kg biwk, alone): very efficacious | effect of continuous treatment versus loading only ([1]; Custirsen with Velcade, maintained vs loading only): dose-dependent and results in better outcome versus loading only | Max BW (mean) reduction ([1]; TV-1011 alone 30 mg/kg ip qd*5, then 40 mg/kg biwk, day 28): −0.5% | % TGI [1, 2]: 67% | No. of CR [1, 2]: 0 | No. of PR [1, 2]: 1 | No. of TRD [1, 2]: 0 | No. og nTRD [1, 2]: 0 | Δ mean tumor volume, (mean ± se) [1, 2]: 574 ± 118 | % TGI ([1]; TV-1011 alone 30 mg/kg ip qd*5, then 40 mg/kg biwk, day 62, listed as TV-1011): 67*** % | volume [1, 3]: 129.3 | weight [1, 3]: 18.8 | volume [1, 4]: 107 and 113 and 116 and 119 and 123 and 128 and 131 and 138 and 147 and 172 | weight [1, 4]: 21.4 and 17.7 and 20.5 and 15.9 and 19.6 and 20.3 and 17.9 and 16.6 and 20.1 and 17.8 | % of baseline (weight) ([1]; Day 28, group Mean, n 10): 99.5% | volume ([1]; Day 28, group Mean, n 10): 158.1 | weight ([1]; Day 28, group Mean, n 10): 18.7 | % of baseline (weight) ([1]; Day 28, individual animals): 98.0% and 104.0% and 102.6% and 95.2% and 96.9% and 94.4% and 103.0% and 98.7% and 98.3% | volume ([1]; Day 28, individual animals): 78 and 127 and 114 and 149 and 180 and 204 (2×) and 159 and 175 and 193 | weight ([1]; Day 28, individual animals): 21.0 and 118.5 and 21.3 and 16.3 and 18.7 and 19.6 and 16.9 and 17.1 and 19.9 and 17.5 | Δ % (weight) [1, 5]: −0.5% | Δ weight [1, 5]: −0.1 | Δ % (weight) [1, 6]: −2.0% and 4.4% and 4.0% and 2.6% and −4.8% and −3.1% and 5.6% and 3.0% and −1.3% and −1.7% | Δ weight [1, 6]: −0.4 and 0.8 (2×) and 0.4 and −0.9 and −0.6 and −1.0 and 0.5 and −0.3 (2×) | % of baseline (weight) ([1]; Day 33, group Mean, n 10): 101.6% | volume ([1]; Day 33, group Mean, n 10): 147.0 | weight ([1]; Day 33, group Mean, n 10): 19.1 | % of baseline (weight) ([1]; Day 33, individual animals): 97.8% and 108.3% and 108.1% and 95.9% and 94.0% and 101.3% and 98.3% and 105.5% and 99.9% and 107.3% | volume ([1]; Day 33, individual animals): 132 and 131 and 120 and 116 and 167 and 157 and 100 and 154 and 206 and 186 | weight ([1]; Day 33, individual animals): 20.9 and 19.2 and 22.1 and 15.2 and 18.4 and 20.5 and 17.6 and 17.5 and 20.1 and 19.1 | Δ % (weight) [1, 7]: 1.6% | Δ weight [1, 7]: 0.3 | Δ % (weight) [1, 8]: −2.2% and 8.3% and 8.1% and −4.1% and −6.0% and 1.3% and −1.7% and 5.5% and −0.1% and 7.3% | Δ weight [1, 8]: −0.5 and 1.5 and 1.7 and −0.6 and −1.2 and 0.3 and −0.3 and 0.9 and 0.0 and 1.3 | % of baseline (weight) ([1]; Day 41, group Mean, n 10): 106.8% | volume ([1]; Day 41, group Mean, n 10): 184.3 | weight ([1]; Day 41, group Mean, n 10): 20.0 | % of baseline (weight) ([1]; Day 41, individual animals): 101.4% and 112.9% and 111.2% and 108.4% and 102.9% and 102.3% and 105.9% and 112.3% and 106.7% and 103.9% | volume ([1]; Day 41, individual animals): 76 and 144 and 140 and 139 and 336 and 249 and 152 and 185 and 223 and 200 | weight ([1]; Day 41, individual animals): 21.7 and 20.0 and 22.8 and 17.2 and 20.2 and 20.7 and 18.9 and 18.7 and 21.5 and 18.5 | Δ % (weight) [1, 9]: 6.8% | Δ weight [1, 9]: 1.2 | Δ % (weight) [1, 10]: 1.4% and 12.9% and 11.2% and 8.4% and 2.9% and 2.3% and 5.9% and 6.7% and 3.9% | Δ weight [1, 10]: 0.3 and 2.3 (2×) and 1.3 (2×) and 0.6 and 0.5 and 1.1 and 2.0 and 0.7 | % of baseline (weight) [1, 11]: 113.8% | volume [1, 11]: 344.4 | Δ % (weight) [1, 11]: 13.8% | Δ weight [1, 11]: 2.5 | weight ([1]; group mean, n=10, day block 1 of 3 (day head not shown)): 21.3 | % of baseline (weight) [1, 12]: 109.2% | volume [1, 12]: 476.6 | weight [1, 12]: 20.4 | Δ % (weight) [1, 12]: 9.2% | Δ weight [1, 12]: 1.7 | % of baseline (weight) [1, 13]: 111.5% | volume [1, 13]: 702.9 | weight [1, 13]: 20.9 | Δ % (weight) [1, 13]: 11.5% | Δ weight [1, 13]: 2.1 | % of baseline (weight) [1, 14]: 108.5% and 116.7% and 112.9% and 120.7% and 110.1% and 107.6% and 114.4% and 123.3% and 115.7% and 108.4% | volume [1, 14]: 101 and 360 and 268 and 267 and 556 and 581 and 211 and 257 and 451 and 392 | Δ % (weight) [1, 14]: 8.5% and 16.7% and 12.9% and 20.7% and 10.1% and 7.6% and 14.4% and 23.3% and 15.7% and 8.4% | Δ weight [1, 14]: 1.8 and 3.0 and 2.6 (2×) and 3.3 and 2.0 and 1.5 (2×) and 3.9 and 3.2 | weight ([1]; individual animals, day block 1 of 3 (day head not shown)): 23.2 and 20.6 and 23.1 and 19.1 and 21.6 and 21.8 and 20.5 (2×) and 23.3 and 19.3 | % of baseline (weight) [1, 15]: 103.3% and 116.7% and 109.7% and 122.9% and 103.1% and 104.0% and 106.1% and 114.0% and 108.4% and 103.7% | volume [1, 15]: 106 and 638 (2×) and 463 and 399 and 767 and 663 and 257 and 246 and 588 | weight [1, 15]: 22.1 and 20.7 and 22.4 and 19.5 and 20.2 and 21.1 and 19.0 (2×) and 21.8 and 18.4 | Δ % (weight) [1, 15]: 3.3% and 16.7% and 9.7% and 22.9% and 3.1% and 4.0% and 6.1% and 14.0% and 8.4% and 3.7% | Δ weight [1, 15]: 0.7 (2×) and 3.0 and 2.0 and 3.6 and 0.6 and 0.8 and 1.1 and 2.3 and 1.7 | % of baseline (weight) [1, 16]: 105.9% and 121.8% and 111.4% and 118.7% and 106.2% and 107.1% and 106.8% and 119.0% and 112.4% and 106.3% | volume [1, 16]: 92 and 955 and 891 and 568 and 1324 and 804 and 379 and 273 and 1001 and 742 | weight [1, 16]: 22.7 and 21.5 and 22.8 and 18.8 and 20.8 and 21.7 and 19.1 and 19.8 and 22.6 and 18.9 | Δ % (weight) [1, 16]: 5.9% and 21.8% and 11.4% and 18.7% and 6.2% and 7.1% and 6.8% and 19.0% and 12.4% and 6.3% | Δ weight [1, 16]: 1.3 and 3.9 and 2.3 and 3.0 and 1.2 (2×) and 1.4 and 3.2 and 2.5 and 1.1 | cancer condition of patients (ovarian cancer): improves | cancer condition of patients (NSCLC): improves | cancer condition of patients (myeloma): improves
